From US9107900B2, “Use of dronedarone for the preparation of a medicament for use in the prevention of cardiovascular hospitalization or of morality” (SANOFI, priority 2008, dated 2015)
Counter-ions that a name gives are not always drawn.

Test system: patients having a history of atrial fibrillation or atrial flutter
Test: prospective, multinational, multicentre, double-blind clinical study versus placebo: cardiovascular hospitalizations and mortality
Type: in vivo, human
Details: for HR (95% CI): cardiovascular hospitalization and death / decrease of cardiovascular hospitalization and death: vs placebo
Method: The patients had to have a history of atrial fibrillation or flutter and/or could be in normal sinus rhythm or in atrial fibrillation or flutter at inclusion.
The patient recruitment was carried out by taking into account the following inclusion criteria:
• 1) One of the following risk factors had to be present: • age equal to or greater than 70 years, • hypertension (taking antihypertensives of at least two different classes), • diabetes, • history of cerebral stroke (transient ischemic event or completed cerebral stroke) or of systemic embolism, • left atrial diameter greater than or equal to 50 mm measured by echocardiography, • left ventricular ejection fraction less than 40%, measured by two-dimensional echography; or • age equal to or above 70, or even above 75, possibly combined with at least one of the risk factors below: • hypertension (taking antihypertensives of at least two different classes), • diabetes, • history of cerebral stroke (transient ischemic event or completed cerebral stroke) or of systemic embolism, • left atrial diameter greater than or equal to 50 mm measured by echocardiography, • left ventricular ejection fraction less than 40%, measured by two-dimensional echography; • 2) availability of an electrocardiogram carried out during the past 6 months in order to document the presence or the history of atrial fibrillation or flutter; • 3) availability of an electrocardiogram carried out during the past 6 months in order to document the presence or absence of normal sinus rhythm. […] Criteria Related to a Cardiac Condition: • Patients in permanent atrial fibrillation • Patients in unstable hemodynamic condition such as acute pulmonary edema within 12 hours prior to start of study medication; cardiogenic shock; treatment with IV pressor agents; patients on respirator; congestive heart failure of stage NYHA IV within the last 4 weeks; uncorrected, hemodynamically significant primary obstructive valvular disease; hemodynamically significant obstructive cardomyopathy; a cardiac operation or revascularization procedure within 4 weeks preceding randomization • Planned major non-cardiac or cardiac surgery or procedures including surgery for valvular heart disease, coronary artery bypass graft (CABG), percutaneous coronary intervention (PCI), or on urgent cardiac transplantation list • Acute myocarditis or constrictive pericarditis • Bradycardia<50 bpm and/or PR-interval>0.28 sec on the last 12-lead ECG. • Significant sinus node disease (documented pause of 3 seconds or more) or 2nd or 3rd degree atrioventricular block (AV-block) unless treated with a pacemaker. Criteria Related to Concomitant Medications:
Need of a concomitant medication that is prohibited in this trial, including the requirement for Vaughan Williams Class I and III anti-arrhythmic drugs, that would preclude the use of study drug during the planned study period, i.e. patients have to stop others antiarrhythmics such as Vaughan Williams Class I and III anti-arrhythmic drugs, for example amiodarone, flecamide, propafenone, quinidine, disopyramide, dofetilide, solatol.
• Plasma potassium<3.5 mmol/l (as anti-arrhythmic drugs can be arrhythmogenic in patients with hypokalemia, this must be corrected prior to randomization. • A calculated GFR at baseline<10 ml/min using the Cockroft Gault formula (GFR [ml/min]=(140−AGE [years]*WEIGHT [kilograms]*CONSTANT/CREATININE [μmol/L], where CONSTANT is […]).
Furthermore, the concomitant use of grapefruit juice and all potent inhibitors of CYP3A4 such as ketoconazole were prohibited.
Treatment was initiated using tablets containing either the placebo or an amount of dronedarone hydrochloride corresponding to 400 mg of dronedarone at a rate of twice a day with the morning and evening meal and more specifically at a rate of one tablet in the morning during or shortly after breakfast and one tablet in the evening during or shortly after dinner. […]

[1] = III.30 cardiovascular hospitalization, Dronedarone N = 2301
[2] = III.31 hospitalization not due to supraventricular arrhythmia, Dronedarone N = 2301

In the case of CCCCc1oc2ccc(NS(C)(=O)=O)cc2c1C(=O)c1ccc(OCCCN(CCCC)CCCC)cc1 [dronedarone hydrochloride, 2-n-Butyl-3-[4-(3-di-n-butylaminopropoxy)benzoyl]-5-methylsulphonamidobenzofuran], the “HR (95% CI): cardiovascular hospitalization and death” value (shortened to “HR (95% CI)”) (Age ≧75 years (N 1925)) is reported as 0.75 (0.65, 0.87), the “decrease of cardiovascular hospitalization and death” value (from here on “decrease”) (Age ≧75 years) is reported as 25% and the “HR (95% CI)” value (Diabetes (N 945)) is reported as 0.75 (0.61, 0.91). For the same compound, the “decrease” value (Diabetes) was 25%, the “HR (95% CI)” value (Hypertension (N 3995)) was 0.77 (0.69, 0.85) and the “decrease” value (Hypertension) was 23%. For the same compound, the “Any cardiovascular hospitalization, number” value [1] was 675, the “Any cardiovascular hospitalization, percent” value [1] was “(29.3%)” and the “Atherosclerosis related (if not otherwise specified), number” value [1] was 11. The “Atherosclerosis related (if not otherwise specified), percent” value [1] was “(0.5%)”, the “Atrial fibrillation and other supraventricular rhythm disorders, number” value [1] was 296 and the “Atrial fibrillation and other supraventricular rhythm disorders, percent” value [1] was “(12.9%)”. The “Blood pressure related (hypotension, hypertension; except syncope), number” value [1] was 21, the “Blood pressure related (hypotension, hypertension; except syncope), percent” value [1] was “(0.9%)” and the “Cardiovascular infection, number” value [1] was 4. For the same compound, the “Cardiovascular infection, percent” value [1] was “(0.2%)”, the “Cardiovascular surgery except cardiac transplantation, number” value [1] was 21 and the “Cardiovascular surgery except cardiac transplantation, percent” value [1] was “(0.9%)”. The “Implantation of a pacemaker, ICD or any other cardiac device, number” value [1] was 32, the “Implantation of a pacemaker, ICD or any other cardiac device, percent” value [1] was “(1.4%)” and the “Major bleeding (requiring two or more units of blood or any intracranial hemorrhage), number” value [1] was 21. The “Major bleeding (requiring two or more units of blood or any intracranial hemorrhage), percent” value [1] was “(0.9%)”, the “Myocardial infarction or unstable angina, number” value [1] was 48 and the “Myocardial infarction or unstable angina, percent” value [1] was “(2.1%)”. For the same compound, the “Non-fatal cardiac arrest, number” value [1] was 3, the “Non-fatal cardiac arrest, percent” value [1] was “(0.1%)” and the “Other ventricular arrhythmia, number” value [1] was 1. For the same compound, the “Other ventricular arrhythmia, percent” value [1] was “(<0.1%)”, the “Pulmonary embolism or deep vein thrombosis, number” value [1] was 10 and the “Pulmonary embolism or deep vein thrombosis, percent” value [1] was “(0.4%)”. The “Stable angina pectoris or atypical chest pain, number” value [1] was 45, the “Stable angina pectoris or atypical chest pain, percent” value [1] was “(2.0%)” and the “Syncope, number” value [1] was 21. The “Syncope, percent” value [1] was “(0.9%)”, the “TIA or stroke (except intracranial hemorrhage), number” value [1] was 28 and the “TIA or stroke (except intracranial hemorrhage), percent” value [1] was “(1.2%)”. For the same compound, the “Transcutaneous coronary, cerebrovascular or peripheral procedure, number” value [1] was 27, the “Transcutaneous coronary, cerebrovascular or peripheral procedure, percent” value [1] was “(1.2%)” and the “Ventricular extrasystoles, number” value [1] was 1. For the same compound, the “Ventricular extrasystoles, percent” value [1] was “(<0.1%)”, the “Ventricular fibrillation, number” value [1] was 1 and the “Ventricular fibrillation, percent” value [1] was “(<0.1%)”. The “Ventricular tachycardia (non-sustained and sustained), number” value [1] was 6, the “Ventricular tachycardia (non-sustained and sustained), percent” value [1] was “(0.3%)” and the “Worsening heart failure, including pulmonary edema or dyspnea of cardiac origin, number” value [1] was 78. The “Worsening heart failure, including pulmonary edema or dyspnea of cardiac origin, percent” value [1] was “(3.4%)”, the “Any non-AF cardiovascular hospitalization, number” value [2] was 438 and the “Any non-AF cardiovascular hospitalization, percent” value [2] was “(19.0%)”. For the same compound, the “Atherosclerosis related (if not otherwise specified), number” value [2] was 11, the “Atherosclerosis related (if not otherwise specified), percent” value [2] was “(0.5%)” and the “Blood pressure (hypotension, hypertension, not syncope), number” value [2] was 25. For the same compound, the “Blood pressure (hypotension, hypertension, not syncope), percent” value [2] was “(1.1%)”, the “Cardiovascular infection, number” value [2] was 4 and the “Cardiovascular infection, percent” value [2] was “(0.2%)”. For the same compound, the “Cardiovascular surgery except cardiac transplantation, number” value [2] was 24, the “Cardiovascular surgery except cardiac transplantation, percent” value [2] was “(1.0%)” and the “Implantation of a pacemaker, ICD or any other cardiac device, number” value [2] was 46. For the same compound, the “Implantation of a pacemaker, ICD or any other cardiac device, percent” value [2] was “(2.0%)”, the “Major bleeding (requiring two or more units of blood or any intracranial hemorrhage), number” value [2] was 27 and the “Major bleeding (requiring two or more units of blood or any intracranial hemorrhage), percent” value [2] was “(1.2%)”. For the same compound, the “Myocardial infarction or unstable angina, number” value [2] was 52, the “Myocardial infarction or unstable angina, percent” value [2] was “(2.3%)” and the “Non-fatal cardiac arrest, number” value [2] was 3. The “Non-fatal cardiac arrest, percent” value [2] was “(0.1%)”, the “Other ventricular arrhythmia, number” value [2] was 1 and the “Other ventricular arrhythmia, percent” value [2] was “(<0.1) %”. The “Pulmonary embolism or deep vein thrombosis, number” value [2] was 11, the “Pulmonary embolism or deep vein thrombosis, percent” value [2] was “(0.5%)” and the “Stable angina pectoris or atypical chest pain, number” value [2] was 51. The “Stable angina pectoris or atypical chest pain, percent” value [2] was “(2.2%)”, the “Syncope, number” value [2] was 23 and the “Syncope, percent” value [2] was “(1.0%)”. For the same compound, the “TIA or stroke (except intracranial hemorrhage), number” value [2] was 32, the “TIA or stroke (except intracranial hemorrhage), percent” value [2] was “(1.4%)” and the “Transcutaneous coronary, cerebrovascular or peripheral procedure, number” value [2] was 31. The “Transcutaneous coronary, cerebrovascular or peripheral procedure, percent” value [2] was “(1.3%)”, the “Ventricular extrasystoles, number” value [2] was 1 and the “Ventricular extrasystoles, percent” value [2] was “(<0.1) %”. For the same compound, the “Ventricular fibrillation, number” value [2] was 1, the “Ventricular fibrillation, percent” value [2] was “(<0.1) %” and the “Ventricular tachycardia (non-sustained and sustained), number” value [2] was 6. The “Ventricular tachycardia (non-sustained and sustained), percent” value [2] was “(0.3%)”, the “Worsening heart failure, including pulmonary edema or dyspnea of cardiac origin, number” value [2] was 89 and the “Worsening heart failure, including pulmonary edema or dyspnea of cardiac origin, percent” value [2] was “(3.9%)”. The “HR (95% CI)” value (LVEF <0.40 (N 338)) was 0.72 (0.51, 1.00) and the “decrease” value (LVEF <0.40) was 28%.
